From patent US20220168317A1, “Therapeutic Thiazine Dye Compositions and Methods of Use” (AB BioInnovations, Inc., priority 2020, published 2022)

Assays:
Details in all cases: final concentration in well; CAMHB, 37° C., 24 hours; single compound
[1] = tested on: Pseudomonas aeruginosa ATCC 27853
Experimental: (§1) Similarly, starting with a 1% methylene blue solution, a 2-fold serial dilution series was generated consisting of 24 members having a methylene blue concentration ranging from 1% to 1.1920929×10^−7%. Each dilution series was prepared using Cation-Adjusted Muller Hinton broth (CAMHB).
(§2) For each dilution series, 0.1 ml of each dilution, in order from most concentrated to least concentrated, was placed into a separate well of a 96-well tissue-culture plate. Select bacterial species were diluted in CAMHB so that 0.1 ml contained approximately 1×10^6 bacteria per ml. […] The tissue-culture plates were incubated at 37° C. for 24 hours.
(§3) After 24 hours, each well was visually assessed using a light microscope for bacterial growth.
(§4) 0.1 ml of each dilution, in order from most concentrated to least concentrated, was placed into an individual well of a 96-well tissue-culture plate. Select bacterial species were diluted in CAMHB so that 0.1 ml contained approximately 1×10^6 bacteria per ml. […] The tissue-culture plates were incubated at 37° C. for 24 hours.
(§5) After 24 hours, each well was visually assessed using a light microscope for bacterial growth. The dilution with the lowest concentrations capable of inhibiting bacterial growth was defined as the MIC.

[2] = tested on: Klebsiella pneumoniae ATCC 13883
Experimental: Each dilution series was prepared using Cation-Adjusted Muller Hinton broth (CAMHB).
as §2, §3

[3] = tested on: Staphylococcus aureus ATCC BAA-44
Experimental: as §1, §2, §3, §4, §5

| MIC [1] | MIC [2] | MIC [3] | Compound |
| --- | --- | --- | --- |
| 0.5% | 0.25% | 0.003906% | CN(C)c1ccc2nc3ccc(=[N+](C)C)cc-3sc2c1 [Methylene Blue, 3,7-bis(dimethylamine)-phenothiazin-5-ium chloride] |
| 0.332% | 0.332% | 0.332% | O=P(O)(O)O [Phosphoric Acid, phosphoric acid] |
